Legend:
HCT116-MTAP-KO = test: Cell killing in HCT116 isogenic pair (Cell Titer-Glo viability), MTAP knock-out cells; assay type: cell-based, human; conditions: 6 days incubation, 0-10 μM, * = more than 50% viability inhibition at tested concentration without a full curve
How it was run: (§1)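 HCT116 MTAP-knockout or mock-knockout (MTAP wildtype) cells in RPMI 1640 with 10% FBS were seeded overnight, then exposed to test compound at 0–10 μM final for 6 days at 37° C. Viability was measured by CellTiter-Glo luminescence and IC50 was fitted.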

HCT116-mock-RNA-KO = test: Cell killing in HCT116 isogenic pair (Cell Titer-Glo viability), mock knock-out cells with MTAP wildtype genotype; assay type: cell-based, human; conditions: 6 days incubation, 0-10 μM
How it was run: as §1

Compound | IC50 (HCT116-MTAP-KO; Homo sapiens, HCT-116, 144 h) | IC50 (HCT116-mock-RNA-KO; Homo sapiens, HCT-116, 144 h) | IC50 (HCT116-MTAP-KO) | IC50 (HCT116-mock-RNA-KO)
CCN(C(=O)c1cc2nc(N)c3c(c2[nH]1)COC3)[C@H](C)c1ccc(C(F)(F)F)cn1 [Example 115, (R)-5-amino-N-ethyl-N-(1-(5-(trifluoromethyl)pyridin-2-yl)ethyl)-6,8-dihydro-1H-furo[3,4-d]pyrrolo[3,2-b]pyridine-2-carboxamide] | 43 nM | 6820 nM |  | 
CCC(CC)N(Cc1c(F)cc(C(F)(F)F)cc1F)C(=O)c1cc2nc(N)c3c(c2[nH]1)CO[C@@H]3C [Example 116, (R)-5-amino-N-(2,6-difluoro-4-(trifluoromethyl)benzyl)-6-methyl-N-(pentan-3-yl)-6,8-dihydro-1H-furo[3,4-d]pyrrolo[3,2-b]pyridine-2-carboxamide] | 6.9 nM | 269 nM |  | 
CCC(CC)N(Cc1ncc(N2CCOCC2)cc1F)C(=O)c1cc2nc(N)c3c(c2[nH]1)COC3 [Example 117, 5-amino-N-((3-fluoro-5-morpholinopyridin-2-yl)methyl)-N-(pentan-3-yl)-6,8-dihydro-1H-furo[3,4-d]pyrrolo[3,2-b]pyridine-2-carboxamide] | 6.5 nM | 609 nM |  | 
C[C@@H](c1ncc(C2CC2)cc1F)N(C)C(=O)c1cc2nc(N)c3c(c2[nH]1)COC3 [Example 118, (S)-5-amino-N-(1-(5-cyclopropyl-3-fluoropyridin-2-yl)ethyl)-N-methyl-6,8-dihydro-1H-furo[3,4-d]pyrrolo[3,2-b]pyridine-2-carboxamide] | 2250 nM | > 10000 nM |  | 
C[C@H](c1ncc(C2CC2)cc1F)N(C)C(=O)c1cc2nc(N)c3c(c2[nH]1)COC3 [Example 119, (R)-5-amino-N-(1-(5-cyclopropyl-3-fluoropyridin-2-yl)ethyl)-N-methyl-6,8-dihydro-1H-furo[3,4-d]pyrrolo[3,2-b]pyridine-2-carboxamide] | 9.8 nM | 1590 nM |  | 
CCN(C(=O)c1cc2nc(N)c3c(c2[nH]1)COC3)[C@H](C)c1ncc(C2CC2)cc1F [Example 120, (R)-5-amino-N-(1-(5-cyclopropyl-3-fluoropyridin-2-yl)ethyl)-N-ethyl-6,8-dihydro-1H-furo[3,4-d]pyrrolo[3,2-b]pyridine-2-carboxamide] | 5.6 nM | 992 nM |  | 
CCN(C(=O)c1cc2nc(N)c3c(c2[nH]1)COC3)[C@@H](C)c1ncc(C2CC2)cc1F [Example 121, (S)-5-amino-N-(1-(5-cyclopropyl-3-fluoropyridin-2-yl)ethyl)-N-ethyl-6,8-dihydro-1H-furo[3,4-d]pyrrolo[3,2-b]pyridine-2-carboxamide] | 586 nM | > 10000 nM |  | 
C[C@@H](c1c(F)cc(Br)cc1F)N(C)C(=O)c1cc2nc(N)c3c(c2[nH]1)COC3 [Example 122, (S)-5-amino-N-(1-(4-bromo-2,6-difluorophenyl)ethyl)-N-methyl-6,8-dihydro-1H-furo[3,4-d]pyrrolo[3,2-b]pyridine-2-carboxamide] | 2220 nM | 5780 nM |  | 
C[C@H](c1c(F)cc(Br)cc1F)N(C)C(=O)c1cc2nc(N)c3c(c2[nH]1)COC3 [Example 123, (R)-5-amino-N-(1-(4-bromo-2,6-difluorophenyl)ethyl)-N-methyl-6,8-dihydro-1H-furo[3,4-d]pyrrolo[3,2-b]pyridine-2-carboxamide] | 46 nM | 4910 nM |  | 
CCN(C(=O)c1cc2nc(N)c3c(c2[nH]1)CO[C@@H]3C)[C@H](C)c1ccc(Br)cc1F [Example 124, (R)-5-amino-N—((R)-1-(4-bromo-2-fluorophenyl)ethyl)-N-ethyl-6-methyl-6,8-dihydro-1H-furo[3,4-d]pyrrolo[3,2-b]pyridine-2-carboxamide] | 22 nM | 2470 nM |  | 
CCN(C(=O)c1cc2nc(N)c3c(c2[nH]1)CO[C@@H]3C)[C@@H](C)c1ccc(Br)cc1F [Example 125] |  |  | 365 nM | 7460 nM
CCN(C(=O)c1cc2nc(N)c3c(c2[nH]1)CO[C@@H]3C)[C@H](C)c1ccc(C(F)(F)F)cc1F [Example 126, (R)-5-amino-N-ethyl-N—((R)-1-(2-fluoro-4-(trifluoromethyl)phenyl)ethyl)-6-methyl-6,8-dihydro-1H-furo[3,4-d]pyrrolo[3,2-b]pyridine-2-carboxamide] | 11 nM | 1720 nM |  | 
CCN(C(=O)c1cc2nc(N)c3c(c2[nH]1)CO[C@@H]3C)[C@@H](C)c1ccc(C(F)(F)F)cc1F [Example 127, (R)-5-amino-N-ethyl-N—((S)-1-(2-fluoro-4-(trifluoromethyl)phenyl)ethyl)-6-methyl-6,8-dihydro-1H-furo[3,4-d]pyrrolo[3,2-b]pyridine-2-carboxamide] | 236 nM | 5900 nM |  | 
CCN(C(=O)c1cc2nc(N)c3c(c2[nH]1)CO[C@@H]3C)[C@H](C)c1ncc(Br)cc1F [Example 128, (R)-5-amino-N—((R)-1-(5-bromo-3-fluoropyridin-2-yl)ethyl)-N-ethyl-6-methyl-6,8-dihydro-1H-furo[3,4-d]pyrrolo[3,2-b]pyridine-2-carboxamide] | 6 nM | 1050 nM |  | 
CCN(C(=O)c1cc2nc(N)c3c(c2[nH]1)CO[C@@H]3C)[C@@H](C)c1ncc(Br)cc1F [Example 129, (R)-5-amino-N—((S)-1-(5-bromo-3-fluoropyridin-2-yl)ethyl)-N-ethyl-6-methyl-6,8-dihydro-1H-furo[3,4-d]pyrrolo[3,2-b]pyridine-2-carboxamide] | 1180 nM | > 10000 nM |  | 
CCN(C(=O)c1cc2nc(N)c3c(c2[nH]1)CO[C@@H]3C)[C@H](C)c1ncc(C(F)(F)F)cc1F [Example 130, (R)-5-amino-N-ethyl-N—((R)-1-(3-fluoro-5-(trifluoromethyl)pyridin-2-yl)ethyl)-6-methyl-6,8-dihydro-1H-furo[3,4-d]pyrrolo[3,2-b]pyridine-2-carboxamide] | 8.5 nM | 1090 nM |  | 
CCN(C(=O)c1cc2nc(N)c3c(c2[nH]1)CO[C@@H]3C)[C@@H](C)c1ncc(C(F)(F)F)cc1F [Example 131, (R)-5-amino-N-ethyl-N—((S)-1-(3-fluoro-5-(trifluoromethyl)pyridin-2-yl)ethyl)-6-methyl-6,8-dihydro-1H-furo[3,4-d]pyrrolo[3,2-b]pyridine-2-carboxamide] | 1830 nM | > 10000 nM |  | 
CCN(C(=O)c1cc2nc(N)c3c(c2[nH]1)COC3)[C@H](C)c1ncc(N2CCOCC2)cc1F [Example 132, 5-amino-N-ethyl-N-(1-(3-fluoro-5-morpholinopyridin-2-yl)ethyl)-6,8-dihydro-1H-furo[3,4-d]pyrrolo[3,2-b]pyridine-2-carboxamide] | 45 nM | > 10000 nM |  | 
CCN(C(=O)c1cc2nc(N)c3c(c2[nH]1)COC3)[C@H](C)c1ccc(Br)cc1F [Example 133, (R)-5-amino-N-(1-(4-bromo-2-fluorophenyl)ethyl)-N-ethyl-6,8-dihydro-1H-furo[3,4-d]pyrrolo[3,2-b]pyridine-2-carboxamide] | 13 nM | 1340 nM |  | 
CCN(C(=O)c1cc2nc(N)c3c(c2[nH]1)COC3)[C@@H](C)c1ccc(Br)cc1F [Example 134, (S)-5-amino-N-(1-(4-bromo-2-fluorophenyl)ethyl)-N-ethyl-6,8-dihydro-1H-furo[3,4-d]pyrrolo[3,2-b]pyridine-2-carboxamide] | 336 nM | 2880 nM |  | 
CCN(C(=O)c1cc2nc(N)c3c(c2[nH]1)COC3)[C@H](C)c1ccc(C(F)(F)F)cc1F [Example 135, (R)-5-amino-N-ethyl-N-(1-(2-fluoro-4-(trifluoromethyl)phenyl)ethyl)-6,8-dihydro-1H-furo[3,4-d]pyrrolo[3,2-b]pyridine-2-carboxamide] | 26 nM | 2130 nM |  | 
CCN(C(=O)c1cc2nc(N)c3c(c2[nH]1)COC3)[C@@H](C)c1ccc(C(F)(F)F)cc1F [Example 136, (S)-5-amino-N-ethyl-N-(1-(2-fluoro-4-(trifluoromethyl)phenyl)ethyl)-6,8-dihydro-1H-furo[3,4-d]pyrrolo[3,2-b]pyridine-2-carboxamide] | 245 nM | 3520 nM |  | 
C[C@H](c1ccc(Br)cc1F)N(C)C(=O)c1cc2nc(N)c3c(c2[nH]1)COC3 [Example 137, (R)-5-amino-N-(1-(4-bromo-2-fluorophenyl)ethyl)-N-methyl-6,8-dihydro-1H-furo[3,4-d]pyrrolo[3,2-b]pyridine-2-carboxamide] | 44 nM | 3020 nM |  | 
C[C@@H](c1ccc(Br)cc1F)N(C)C(=O)c1cc2nc(N)c3c(c2[nH]1)COC3 [Example 138, (S)-5-amino-N-(1-(4-bromo-2-fluorophenyl)ethyl)-N-methyl-6,8-dihydro-1H-furo[3,4-d]pyrrolo[3,2-b]pyridine-2-carboxamide] | 913 nM | 3240 nM |  | 
C[C@H](c1ccc(Br)cc1F)N(C)C(=O)c1cc2nc(N)c3c(c2[nH]1)CO[C@@H]3C [Example 139, (R)-5-amino-N—((R)-1-(4-bromo-2-fluorophenyl)ethyl)-N,6-dimethyl-6,8-dihydro-1H-furo[3,4-d]pyrrolo[3,2-b]pyridine-2-carboxamide] | 12 nM | 2400 nM |  | 
C[C@H]1OCc2c1c(N)nc1cc(C(=O)N(C)[C@@H](C)c3ccc(Br)cc3F)[nH]c21 [Example 140, (R)-5-amino-N—((S)-1-(4-bromo-2-fluorophenyl)ethyl)-N,6-dimethyl-6,8-dihydro-1H-furo[3,4-d]pyrrolo[3,2-b]pyridine-2-carboxamide] | 270 nM | 3030 nM |  | 
Nc1nc2cc(C(=O)N3CCOC[C@@H]3c3ccc(C(F)(F)F)cc3)[nH]c2c2c1COC2 [Example 141, (S)-(5-amino-6,8-dihydro-1H-furo[3,4-d]pyrrolo[3,2-b]pyridin-2-yl)(3-(4-(trifluoromethyl)phenyl)morpholino)methanone] | 149 nM | > 10000 nM |  | 

Source: patent publication US20240368177A1, “5-AMINO-6,8-DIHYDRO-1H-FURO[3,4-d]PYRROLO[3,2-b]PYRIDINE-2-CARBOXAMIDE DERIVATIVES AS MTA-COOPERATIVE INHIBITORS OF PRMT5” (BeiGene Switzerland GmbH, priority 2023, published 2024)
